Measurements reported in article PMC8256334, “Simultaneous Determination of a Novel PD-L1 Inhibitor, IMMH-010, and Its Active Metabolite, YPD-29B, in Rat Biological Matrices by Polarity-Switching Liquid Chromatography-Tandem Mass Spectrometry: Application to ADME Studies” (Frontiers in Pharmacology, 2021).
Several values for one entry are separate records, joined by “and”; a condition that tells them apart may be missing. Identical values can stand only once. Like-named read-outs stand apart in the source and are kept apart here.

Experiments:
Assay type in all cases: in vivo, Sprague-Dawley rats
[1] = Tissue distribution study in rats; conditions: for concentration in adrenal gland / concentration in brain / concentration in heart / concentration in kidney / concentration in liver / concentration in lung / concentration in lymph / concentration in plasma / concentration in spleen / concentration in thymus: n = 5; for Kp at 0.25 h / Kp at 0.5 h / Kp at 4 h: female, Sprague-Dawley, rat, oral, i.g. 10 mg/kg IMMH-010 maleate, read-out: T/P (tissue-to-plasma partition)
Procedure: (§1) Female Sprague-Dawley rats (200 ± 20 g, Vital River, Beijing, China) were kept in standard environmental conditions. Rats were fasted overnight with free access to water and randomly assigned to different groups before the experiments. All animal protocols were approved by the Institute Animal Care and Welfare Committee of the Institute of Materia Medica, Chinese Academy of Medical Sciences and Peking Union Medical College.
The tissue distribution study was performed 15 min, 30 min, 4 h and 12 h after i. g. administration of 10 mg/kg IMMH-010 maleate. Blood was collected and centrifuged at 5,000 rpm for 10 min. The heart, liver, brain, spleen, lung, kidney, adrenal gland, thymus, and lymph were harvested immediately. The tissues were washed with normal saline and blotted dry with filter paper. All samples were stored at -20°C before analysis.

[2] = PK study in rats after single i.g. administration of IMMH-010 maleate; conditions: for AUC(0-inf) / AUC(0-t) / Cmax / MRT last / MRT inf / Tmax / half-life: female, Sprague-Dawley, po; for MRT last: read-out: MRT(0-t); for MRT inf: read-out: MRT(0-∞); for Tmax: median (range); for half-life: rat, plasma
Source text: as §1
IMMH-010 maleate was suspended in 0.5% sodium carboxymethyl cellulose. The rats were intragastrically (i.g.) administered IMMH-010 maleate at doses of 10, 30, and 100 mg/kg. Blood samples were withdrawn via the orbital plexus into heparinized tubes with NaF at 5, 15, and 30 min and 1, 2, 4, 6, 8, 12, 24, 36, and 48 h. Plasma was immediately prepared by centrifugation at 5,000 rpm for 10 min. All samples were stored at −20°C prior to analysis. The PK parameters of IMMH-010 and YPD-29B were calculated using the Linear Trapezoidal with Linear Interpolation method by WinNonlin software version 6.3 based on a noncompartmental model (Pharsight Corporation, Mountain View, United States ).

[3] = Excretion study in rats (urine and feces); conditions: for excretion in feces, % Of administered dose / excretion in urine, % Of administered dose: i.g. IMMH-010 maleate 10 mg/kg, n = 5
Procedure: as §1
After i. g. administration of IMMH-010 maleate (10 mg/kg), rats were housed in separate metabolite cages to collect their urine and feces: 0–12, 12–24, 24–36, 36–48, and 48–72 h for urine and 0–24, 24–48, and 48–72 h for feces. Fecal samples were dried in air. Urine samples were stored at −20°C prior to analysis.

[4] = time 0.25 (15 min) after i.g. 10 mg/kg IMMH-010 maleate
[5] = time 0.5 (30 min) after i.g. 10 mg/kg IMMH-010 maleate
[6] = time 4 (4 h) after i.g. 10 mg/kg IMMH-010 maleate
[7] = rat plasma, single i.g. IMMH-010 maleate 10 mg/kg, mean ± SD, n = 5
[8] = rat plasma, single i.g. IMMH-010 maleate 30 mg/kg, mean ± SD, n = 5
[9] = rat plasma, single i.g. IMMH-010 maleate 100 mg/kg, mean ± SD, n = 5

concentration in adrenal gland ([1]; adrenal gland, time 0.25 (15 min) after i.g. 10 mg/kg IMMH-010 maleate): 15.3 ± 10.8 ng/ml or ng/g | concentration in adrenal gland ([1]; adrenal gland, time 0.5 (30 min) after i.g. 10 mg/kg IMMH-010 maleate): 39.7 ± 45.3 ng/ml or ng/g | concentration in adrenal gland ([1]; adrenal gland, time 4 (4 h) after i.g. 10 mg/kg IMMH-010 maleate): BLQ | concentration in brain [1, 4]: BLQ | concentration in brain [1, 5]: BLQ | concentration in brain [1, 6]: BLQ | Kp at 0.25 h ([1]; adrenal gland): 0.5 | Kp at 0.5 h ([1]; adrenal gland): 0.7 | Kp at 0.25 h ([1]; heart): 0.5 | Kp at 0.5 h ([1]; heart): 0.7 | Kp at 0.25 h ([1]; kidney): 2 | Kp at 0.5 h ([1]; kidney): 4.8 | Kp at 4 h ([1]; kidney): 34.6 | Kp at 0.25 h ([1]; liver): 43.8 | Kp at 0.5 h ([1]; liver): 58.2 | Kp at 4 h ([1]; liver): 40.1 | Kp at 0.25 h ([1]; lung): 1.1 | Kp at 0.5 h ([1]; lung): 2 | Kp at 4 h ([1]; lung): 4.4 | Kp at 0.25 h ([1]; lymph): 1.6 | Kp at 0.5 h ([1]; lymph): 6.8 | Kp at 4 h ([1]; lymph): 9.1 | Kp at 0.25 h ([1]; spleen): 0.5 | Kp at 0.5 h ([1]; spleen): 0.9 | Kp at 0.5 h ([1]; thymus): 0.05 | Kp at 4 h ([1]; thymus): 0.5 | concentration in heart ([1]; heart, time 0.25 (15 min) after i.g. 10 mg/kg IMMH-010 maleate): 17.3 ± 11.9 ng/ml or ng/g | concentration in heart ([1]; heart, time 0.5 (30 min) after i.g. 10 mg/kg IMMH-010 maleate): 39.6 ± 33.7 ng/ml or ng/g | concentration in heart ([1]; heart, time 4 (4 h) after i.g. 10 mg/kg IMMH-010 maleate): BLQ | concentration in kidney ([1]; kidney, time 0.25 (15 min) after i.g. 10 mg/kg IMMH-010 maleate): 64.2 ± 40.4 ng/ml or ng/g | concentration in kidney ([1]; kidney, time 0.5 (30 min) after i.g. 10 mg/kg IMMH-010 maleate): 265 ± 222 ng/ml or ng/g | concentration in kidney ([1]; kidney, time 4 (4 h) after i.g. 10 mg/kg IMMH-010 maleate): 168 ± 23 ng/ml or ng/g | concentration in liver ([1]; liver, time 0.25 (15 min) after i.g. 10 mg/kg IMMH-010 maleate): 1,403 ± 962 ng/ml or ng/g | concentration in liver ([1]; liver, time 0.5 (30 min) after i.g. 10 mg/kg IMMH-010 maleate): 3,239 ± 2,833 ng/ml or ng/g | concentration in liver ([1]; liver, time 4 (4 h) after i.g. 10 mg/kg IMMH-010 maleate): 195 ± 56 ng/ml or ng/g | concentration in lung ([1]; lung, time 0.25 (15 min) after i.g. 10 mg/kg IMMH-010 maleate): 35.7 ± 22.8 ng/ml or ng/g | concentration in lung ([1]; lung, time 0.5 (30 min) after i.g. 10 mg/kg IMMH-010 maleate): 109 ± 104 ng/ml or ng/g | concentration in lung ([1]; lung, time 4 (4 h) after i.g. 10 mg/kg IMMH-010 maleate): 21.4 ± 6.8 ng/ml or ng/g | concentration in lymph ([1]; lymph, time 0.25 (15 min) after i.g. 10 mg/kg IMMH-010 maleate): 51.5 ± 41.0 ng/ml or ng/g | concentration in lymph ([1]; lymph, time 0.5 (30 min) after i.g. 10 mg/kg IMMH-010 maleate): 378 ± 451 ng/ml or ng/g | concentration in lymph ([1]; lymph, time 4 (4 h) after i.g. 10 mg/kg IMMH-010 maleate): 44.0 ± 13.9 ng/ml or ng/g | concentration in plasma [1, 4]: 32.0 ± 25.2 ng/ml or ng/g | concentration in plasma [1, 5]: 55.7 ± 51.6 ng/ml or ng/g | concentration in plasma [1, 6]: 4.86 ± 1.39 ng/ml or ng/g | concentrations in tissues at 12 h ([1]; rat tissues, 12 h after oral 10 mg/kg IMMH-010 maleate): below the LLOQ | concentration in spleen ([1]; spleen, time 0.25 (15 min) after i.g. 10 mg/kg IMMH-010 maleate): 15.1 ± 10.8 ng/ml or ng/g | concentration in spleen ([1]; spleen, time 0.5 (30 min) after i.g. 10 mg/kg IMMH-010 maleate): 48.4 ± 47.9 ng/ml or ng/g | concentration in spleen ([1]; spleen, time 4 (4 h) after i.g. 10 mg/kg IMMH-010 maleate): BLQ | concentration in thymus ([1]; thymus, time 0.25 (15 min) after i.g. 10 mg/kg IMMH-010 maleate): BLQ | concentration in thymus ([1]; thymus, time 0.5 (30 min) after i.g. 10 mg/kg IMMH-010 maleate): 2.74 ± 6.12 ng/ml or ng/g | concentration in thymus ([1]; thymus, time 4 (4 h) after i.g. 10 mg/kg IMMH-010 maleate): 2.23 ± 4.99 ng/ml or ng/g | AUC(0-inf) [2, 7]: 110 ± 46.6 ng·h/mL | AUC(0-t) [2, 7]: 94.3 ± 46.3 ng·h/mL | Cmax [2, 7]: 63.7 ± 29.1 ng/mL | MRT last [2, 7]: 1.5 ± 0.4 h | MRT inf [2, 7]: 2.27 ± 0.96 h | Tmax ([2]; rat plasma, single i.g. IMMH-010 maleate 10 mg/kg, n = 5): 30 min | AUC(0-inf) [2, 8]: 521 ± 114 ng·h/mL | AUC(0-t) [2, 8]: 503 ± 110 ng·h/mL | Cmax [2, 8]: 268 ± 43 ng/mL | MRT last [2, 8]: 1.55 ± 0.14 h | MRT inf [2, 8]: 2.06 ± 0.55 h | Tmax ([2]; rat plasma, single i.g. IMMH-010 maleate 30 mg/kg, n = 5): 30 min | AUC(0-inf) [2, 9]: 1640 ng·h/mL | AUC(0-t) [2, 9]: 1620 ng·h/mL | Cmax [2, 9]: 569 ± 72 ng/mL | MRT last [2, 9]: 2.88 ± 0.89 h | MRT inf [2, 9]: 3.12 ± 0.87 h | Tmax ([2]; rat plasma, single i.g. IMMH-010 maleate 100 mg/kg, n = 5): 60 min | half-life ([2]; 10 mg/kg, rat plasma, single i.g. IMMH-010 maleate 10 mg/kg, mean ± SD, n = 5, read-out: t1/2β (converted)): 94.2 ± 64.8 min | half-life ([2]; 30 mg/kg, rat plasma, single i.g. IMMH-010 maleate 30 mg/kg, mean ± SD, n = 5, read-out: t1/2β (converted)): 219 ± 166 min | half-life ([2]; 100 mg/kg, rat plasma, i.g. IMMH-010 maleate 10, 30 and 100 mg/kg, range over doses, read-out: average plasma elimination half-life (t1/2β)): 94.2 to 219 min | half-life ([2]; 100 mg/kg, rat plasma, single i.g. IMMH-010 maleate 100 mg/kg, mean ± SD, n = 5, read-out: t1/2β (converted)): 186 ± 106 min | dose dependence of AUC ([2]; rat plasma, dose range 10–100 mg/kg IMMH-010 maleate, oral): proportional to the dose | time postdose at which the metabolite could be detected in plasma ([2]; rats, after oral administration of IMMH-010 maleate): 5 min | excretion in feces, % Of administered dose ([3]; time 24 h): 14.56 ± 8.45 % Of administered dose | excretion in feces, % Of administered dose ([3]; time 48 h): 19.42 ± 6.85 % Of administered dose | share of the dose recovered in the urine and feces as this analyte ([3]; urine and feces within 72 h, rats, oral IMMH-010 maleate): 20.82% | excretion in urine, % Of administered dose ([3]; time 12 h): 0.52 ± 0.15 % Of administered dose | excretion in urine, % Of administered dose ([3]; time 24 h): 0.63 ± 0.15 % Of administered dose | excretion in urine, % Of administered dose ([3]; time 36 h): 0.71 ± 0.17 % Of administered dose | excretion in urine, % Of administered dose ([3]; time 48 h): 0.85 ± 0.36 % Of administered dose
Compound: O=C(O)[C@H](CO)NCc1cc(Cl)c(OCc2cccc(-c3ccccc3)c2Br)cc1OCc1cccnc1 [YPD-29B]
tissues of main distribution ([1]; rats, oral 10 mg/kg IMMH-010 maleate): liver, followed by the lymph, kidney, and lung | excretion in feces, % Of administered dose ([3]; time 72 h): 19.65 % Of administered dose and 19.65 ± 6.76 % Of administered dose | excretion in urine, % Of administered dose ([3]; time 72 h): 1.17 % Of administered dose and 1.17 ± 0.91 % Of administered dose
